# From US20240100065A1, “METHODS FOR TREATING RECEPTOR-INTERACTING PROTEIN KINASE 1-MEDIATED DISEASES” (Genzyme Corporation, priority 2022, published 2024)
# Assays:
# [1] = Concentration-ECG (QTcF, HR, PR, QRS) analysis from 24-hour Holter; assay type: in vivo, human
# Method: A thorough time-matched (TM∘) ECG parameters analysis in relation with SAR443820 concentrations on Day 1 (SAD-Part 1a) and on Day 14 (MAD Part 2) over 24 hours compared to the baseline prior the first dosing was performed on ECG extracted from 24-hour Holter data.
# For Part 1a (SAD) and Part 2 (MAD), the concentration-ECG population will encompass all randomized participants treated by SAR443820 as long as they have at least 1 ECG assessment time-matched with a pharmacokinetic concentration (ECGs centrally read coming from 24-hours Holter ECG). Participants randomized in the placebo group will also be included in the Concentration-ECG population if they have at least 1 non missing change from baseline in ECG parameter. Exposure-response analyses between QTcF parameters (change from time-matched baseline in 24-hours Holter ECG data) and corresponding Compound 1 concentrations were performed using graphical tools and regression methods over 24 hours on Day 1 (SAD-Part 1a) or Day 14 (MAD-Part 2) post-dose. Predictions at selected concentrations were computed using a linear mixed effect model (see Am Heart J. 2014; 168(3):262-72. J Pharmacokinet Pharmacodyn. 2018; 45(3):383-97).
# CYP3A4 = test: Plasma 4β-hydroxycholesterol Day 14/Day 1 ratio (CYP3A4 induction); assay type: in vivo, human; conditions: repeated doses up to 20 mg BID, 14 days
# Method: The plasma 4β-hydroxycholesterol on Day 14 versus Day 1 pre-dose concentration ratios were calculated to evaluate the potential for CYP3A4 enzyme induction by Compound 1 after repeated doses in Part 2.
# PK population included all participants exposed to Compound 1 with no major or critical deviations related to Compound 1 and for whom PK data were considered sufficient and interpretable. PK parameters were summarized by descriptive statistics for each dose level group. Distribution of Tmax values was represented by histogram plots for each dose level group. In Part 1a, dose proportionality was assessed using a linear model on Cmax, AUClast and AUC. […] Steady state was assessed on Ctrough using a non-linear model. Accumulation was assessed using a linear model on log-transformed accumulation ratio. Dose proportionality was assessed using a power model on Cmax and AUCtau on Day 1 and Day 14, separately. […] In Part 1b, CSF concentration was described by dose level group and CSF to plasma unbound concentration ratios calculated were described in the same way. 4β-hydroxycholesterol on Day 14 versus Day 1 pre-dose concentration ratios were summarized using descriptive statistics by dose level group and point estimates with 90% confidence interval (90% CI) for the geometric mean of the log-transformed Day14/Day1 ratio was calculated in Part 2. […]
# [2] = Part 1a Day 1, 10 mg, at Cmax 116.00 ng/ml
# [3] = Part 1a Day 1, 20 mg, at Cmax 241.00 ng/ml
# [4] = Part 1a Day 1, 30 mg, at Cmax 417.00 ng/ml
# [5] = Part 1a Day 1, 40 mg, at Cmax 555.00 ng/ml
# [6] = Part 2 Day 14, 10 mg QD, at Cmax 158.00 ng/ml
# [7] = Part 2 Day 14, 15 mg BID, at Cmax 268.00 ng/ml
# [8] = Part 2 Day 14, 20 mg BID, at Cmax 353.00 ng/ml
# [9] = Part 2 Day 14, 20 mg QD, at Cmax 250.00 ng/ml
smiles,measurement,setting,value
"CC(C)(C(=O)N1CCOc2c(C#N)cncc2C1)C(F)F [Compound 1, 4-(3,3-difluoro-2,2-dimethyl-propanoyl)-3,5-dihydro-2H-pyrido[3,4-f] [1,4]oxazepine-9-carbonitrile]",Predicted delta Heart Rate vs placebo,[1]; [2],−3.68 beats/min
same,Predicted delta PR Interval vs placebo,[1]; [2],5.87 ms
same,Predicted delta QRS Duration vs placebo,[1]; [2],-0.04 ms
same,Predicted delta QTcF interval vs placebo,[1]; [2],-4.41 ms
same,Predicted delta Heart Rate vs placebo,[1]; [3],−2.62 beats/min
same,Predicted delta PR Interval vs placebo,[1]; [3],6.70 ms
same,Predicted delta QRS Duration vs placebo,[1]; [3],0.43 ms
same,Predicted delta QTcF interval vs placebo,[1]; [3],-3.88 ms
same,Predicted delta Heart Rate vs placebo,[1]; [4],−1.11 beats/min
same,Predicted delta PR Interval vs placebo,[1]; [4],7.88 ms
same,Predicted delta QRS Duration vs placebo,[1]; [4],1.10 ms
same,Predicted delta QTcF interval vs placebo,[1]; [4],-3.15 ms
same,Predicted delta Heart Rate vs placebo,[1]; [5],0.06 beats/min
same,Predicted delta PR Interval vs placebo,[1]; [5],8.80 ms
same,Predicted delta QRS Duration vs placebo,[1]; [5],1.62 ms
same,Predicted delta QTcF interval vs placebo,[1]; [5],-2.57 ms
same,Predicted delta Heart Rate vs placebo,[1]; [6],0.25 beats/min
same,Predicted delta PR Interval vs placebo,[1]; [6],-4.63 ms
same,Predicted delta QRS Duration vs placebo,[1]; [6],2.52 ms
same,Predicted delta QTcF interval vs placebo,[1]; [6],-5.36 ms
same,Predicted delta Heart Rate vs placebo,[1]; [7],−0.26 beats/min
same,Predicted delta PR Interval vs placebo,[1]; [7],-4.53 ms
same,Predicted delta QRS Duration vs placebo,[1]; [7],3.00 ms
same,Predicted delta QTcF interval vs placebo,[1]; [7],-3.74 ms
same,Predicted delta Heart Rate vs placebo,[1]; [8],−0.65 beats/min
same,Predicted delta PR Interval vs placebo,[1]; [8],-4.46 ms
same,Predicted delta QRS Duration vs placebo,[1]; [8],3.37 ms
same,Predicted delta QTcF interval vs placebo,[1]; [8],-2.49 ms
same,Predicted delta Heart Rate vs placebo,[1]; [9],−0.18 beats/min
same,Predicted delta PR Interval vs placebo,[1]; [9],-4.55 ms
same,Predicted delta QRS Duration vs placebo,[1]; [9],2.92 ms
same,Predicted delta QTcF interval vs placebo,[1]; [9],-4.01 ms
same,Effect on QTcF intervals,"[1]; single dose up to 40 mg, repeated dose up to 20 mg BID",No clinically relevant dose-related effects
same,Potential for CYP3A4 induction,CYP3A4,no potential for CYP3A4 induction
